# Data as given in patent US12090137B2, “Solid Δ9-tetrahydrocannabinol (Δ9-THC) compositions” (CANNA-C[…], priority 2020, dated 2024).
# Experiment: Flowable powder formation by freeze-drying (lyophilization), Example 1
# Assay type: physicochemical
# Protocol: The powder former (amount based on 1:1, 1:2 or 1:4 molar Δ^9-THC:powder former ratio) was dissolved in H2O (2 mL) and, if needed, dioxane (2 mL) was added to form a solution. The powder former solution was added to the Δ^9-THC solution in the round bottom flask. The round bottom flask was then submerged in a dry ice/acetone bath or liquid nitrogen to freeze the solution while continuously rotating the flask by hand to maximize surface area and form an even, thin layer around the flask. Once frozen, the round bottom flask was attached to a LabConco lyophilizer with an Edwards RV8 vacuum pump pre-equilibrated at ^˜−50° C. Samples were left overnight (18 hrs) and removed the next day.
# Δ^9-THC and several powder formers were lyophilized using the described procedure to determine if a flowable powder would result.
compound,measurement,setting,value
"CCCCCc1cc(O)c2c(c1)OC(C)(C)[C@@H]1CCC(C)=C[C@@H]21 [Δ^9-THC, (−)-trans-Δ^9-tetrahydrocannabinol]",Result of lyophilizing without a powder former,from dioxane alone,gel
same,Result of lyophilizing without a powder former,from dioxane/water (~75/25 by volume),tacky gel
